# Data published in patent US20130289023A1, “METHOD FOR TREATING BRAIN TUMOR” (priority 2012, published 2013).
# Where two headings read alike, the source gives them in different places.
# Key:
# [1] = system: GBM8401 cells; assay: MTT cell viability assay in GBM8401; settings: for cell death: GBM8401, 1 to 10 μM, 72 hr, FIG. 1(B)
# Procedure: To examine the cytotoxicity of anti-psychotic drugs on malignant glioma, GBM8401 cells were treated with 21 anti-psychotic drugs at 10 μM, respectively, for 72 hr.
# [2] = system: U87MG cells; assay: Cell viability / cell death in U87MG; assay type: cell-based; settings: 1 to 10 μM, 72 hr, FIG. 1(B)
# [3] = system: GBM cells; assay: Autophagy and ER stress markers in GBM cells (western blot); assay type: cell-based; settings: for autophagy in GBM cells: GBM8401 and U87MG cells, western blot markers
# Procedure: (§1) The cells were lysed in a lysis buffer (50 mM Tris-HCl, pH 7.4, 5 mM MgCl2, 1% Nonidet P-40, 150 mMNaCl, 1 mM phenylmethylsulfonyl fluoride). Total protein was isolated and subjected to SDS polyacrylamide gel electrophoresis and electrotransfered onto PVDF membranes (Millipore). Primary antibodies, including p-mTOR (Ser 2448), mTOR, PI3K (P110α), p-Akt (Ser 473), Akt, p-S6K (Ser 424), S6K, p-AMPK (Thrl72), AMPK, and CASP3, were obtained from Cell Signaling and LC3 was from Abgent, and secondary antibodies for anti-mouse and anti-rabbit horseradish preoxidase (HRP)-conjugation were from Chemicon International. The protein detection was performed with enhanced chemiluminescence (ECL™) method captured by a Luminescence Imaging System (LAS-4000™, Fuji Photo Film Co., Ltd),
# (§2) We observed several protein expression changes, primarily involved in autophagic and cell growth related pathway, it was shown that GBM cells are more sensitive to agents that induce autophagy than apoptosis. Thus, we examined the PI3K-Akt-mTORcascade with known roles m regulation of autophagy.
# [4] = system: U87MG sphere cells (cancer stem-like cells)
# [5] = system: GBM8401 cells; assay: Side population assay (flow cytometry) in GBM8401; assay type: cell-based; settings: 10 μM, decreased from 1.26%
# Procedure: (§3) The cells were detached from the dishes with trypsin-EDTA (Invitrogen), and suspended in a single-cell suspension at 1×10^6 cells/mL in Hank's balanced salt solution (HBSS) supplemented with 3% fetal calf serum and 10 mM Hepes. The cells were then incubated at 37° C. for 90 min with 20 μg/mL Hoechst 33342 (Sigma Chemical, St. Louis, Mo.), either alone or in the presence of 50 μmol/L verapamil (Sigma), an inhibitor of the verapamil-sensitive ABC transporter. After incubation, the cells were centrifuged immediately for 5 min at 300 g and 4° C. and resuspended in ice-cold HBSS, The cells were kept on ice to inhibit efflux of the Hoechst dye, and 1 μg/mL propidium Iodide (BD) was added to discriminate dead cells. Finally, these cells were filtered through a 40 μm cell strainer (BD) to obtain a single-cell suspension. Dual-wavelength analysis and purification were performed on a dual-laser PACS. Vantage SE machine (BD). Hoechst 33342 was excited with a 355 nm UV light and emitted blue fluorescence with a 450/20 band-pass (BP) filter and red fluorescence with a 675 nm edge filter long-pass (EFLP). A 610 nm dichroic mirror short-pass (DMSP) was used to separate the emission wavelengths. Pi-positive (dead) cells were excluded from the analysis.
# [6] = system: U87MG cells; assay: Side population assay (flow cytometry) in U87MG; assay type: cell-based; settings: 10 μM, decreased from 1.43%
# Procedure: as §3
# [7] = system: GBM8401 cells; assay: Western blot analysis in GBM8401; assay type: cell-based; settings: 24 hr
# Procedure: as §1, §2
# (§4) Pathway analysis of differentially expressed gene signatures obtained from microarray profiling was investigated via Consensus PathDB. Several thioridazine-mediated pathways were highlighted, including pathway in cancer, GPCR signaling, senescence and autophagy, DMA damage response, and G1 to S cell cycle control (FIGS. 4(A) and 4(B)). Because G-protein couple receptors (GPCR) are membrane associated proteins and have been widely recognized as drug targets. Therefore, we tested whether GPCR might be the target of thioridazine.
# [8] = system: U87MG cells; assay: Western blot analysis in U87MG; assay type: cell-based; settings: 24 hr
# Procedure: as §1, §2, §4
# [9] = system: primary GBM spheroids; assay: Tumor spheroid assay; assay type: cell-based
# Procedure: For the formation of tumor spheroids, cells were cultured in HEScGRO serum-free medium (human) (Chemicon) supplemented with 20 ng/mL Hegf, 10 ng/mL hFGF-b and NeuroCult MS-A proliferation supplements. Cells were seeded at low densities (1000 cells/mL) in 12-well low adhesion plates at 1 mL, per well Spheroids (tight, spherical, non-adherent masses >90 um in diameter) were counted, and at least 50 spheroids per group were measured with an ocular micrometer. For secondary spheroid-forming assays, primary spheroids were dissociated mechanically and processed as in the primary assay. For the quantification of the percentage of spheroid-forming cells, cells were seeded at one cell per well in 96-well plates, […]
# [10] = system: U87MG cells; assay: U87MG subcutaneous tumor in NOD/SCID mice; assay type: in vivo; settings: 5 days/week
# Procedure: Female NOD/SCID, 4-6 weeks of age were purchased from the National Laboratory Animal Center (NLAC) (Taipei, Taiwan). All protocols were approved by the institutional animal care committee of Taipei Medical University Hospital Mice were inoculated with U87MG cells in the right flank of NOD/SCID mice (1×10^6 cells/100 μL PBS, subcutaneous infection) and divided into control (sham) and thioridazine-treatment groups (5 mg/kg/day, 5 days/week). N=5 in each group. Tumor burden was measured on a weekly basis using a caliper and calculated using the following formula (a×b^2)/2, where a and b represents the long and short axis of the tumor respectively.
# By the end of 6 weeks, animals were humanely sacrificed and tumor biopsies were collected.
# [11] = U87MG sphere cells, 10 and 20 μM, 24 hr
substance,measurement,setting,value
fluphenazine,cell death,[1],dose-dependent increase in cell death
same,cell death,[2],dose-dependent increase in cell death
same,autophagy in GBM cells,[3],induce autophagye
prochlorperazine,cell viability,"[4]; U87MG sphere cells, 10 and 15 μM, 24 hr",significantly reduced
thioridazine,IC50,[1],< 10 µM
same,cell death,[1],dose-dependent increase in cell death
same,cell death,[2],dose-dependent increase in cell death
same,cancer stem-like cells population (side population),[5],0.03%
same,cancer stem-like cells population (side population),[6],0.1%
same,"EDNRA, GPR17, GPRC5B (GPCR) expression","[7]; GBM8401, 10 μM",down-regulated
same,LC3-II and phospho-AMPK (THr172),"[7]; GBM8401, 5 to 15 μM",up-regulated
same,"PI3K, phospho-Akt(Ser 473), phospho-mTOR(Ser 2448), phospho-S6K (Ser 424)","[7]; GBM8401, 5 to 15 μM",down-regulated
same,"EDNRA, GPR17, GPRC5B (GPCR) expression",[8]; 10 μM,down-regulated
same,LC3-II and phospho-AMPK (THr172),[8]; 5 to 15 μM,up-regulated
same,"PI3K, phospho-Akt(Ser 473), phospho-mTOR(Ser 2448), phospho-S6K (Ser 424)",[8]; 5 to 15 μM,down-regulated
same,autophagy in GBM cells,[3],induce autophagye
same,ER stress: IRE1a and ER stress-associated proteins (Bip and CHOP),[3]; GBM cells,accumulation
same,formation of primary GBM spheroids,[9],inhibited
same,tumor samples (biopsies) compared to control mice,"[10]; 5 mg/kg/day, end of 6 weeks",significantly smaller in size and less vascularized
same,tumor burden compared to vehicle control,"[10]; i.p. injection 5 mg/kg/day, NOD-SCID mice with U87MG cells",significantly smaller
same,cell viability,[4]; 10 µM,22%
same,cell viability,[4]; [11],significantly reduced
trifluoperazine,cell viability,[4]; [11],significantly reduced
